The values below come from patent US20260193319A1, “PLATELET-BINDING PROTEINS AND CONJUGATES THEREOF, PARTICLES COMPRISING THEM AND USES THEREOF” (Haima Therapeutics, LLC, priority 2022, published 2026).

Values joined by “and” are separate entries in the source; they are usually repeats but may differ in a detail not shown here. Equal entries are not always repeated. Where a SMILES comes first, the peptide text is derived from it. Bridges are numbered along the chain shown (N, C = ends). [ ]: non-standard residue; d: D form. Pra = C#CC[C@H](N)C(=O)O; βAla = NCCC(=O)O

In experiment [1] the test system is human platelets (PRP stimulated with ADP). Briefly: Peptide inhibition of platelet aggregation, light transmission aggregometry in human PRP/ADP. It counts as cell-based. To be noted: for Peptide Inhibition of Platelet Aggregation, pass/fail result: criterion: inhibition of platelet aggregation, FMP2 IC50 ≤ FMP1 IC50; for IC50: human PRP/ADP, final aggregation, log-dose vs response fit, approximate. The source says:
The properties of the FMP2 peptide and peptide-decorated particles (synthetic platelet) were compared to those of the old FMP1 peptide. First, Chang et al. have shown that cyclic RGD peptides are able to selectively bind to activated platelets and prevent human platelet aggregation as measured via platelet light transmission aggregometry. This protocol was adapted and performed to compare the IC50 values of FMP1 and FMP2. Specifically, human whole blood was drawn from healthy, aspirin refraining donors via venipuncture into syringe containing 3.8% w/v sodium citrate. Platelet rich plasma (PRP) was obtained by centrifugation of whole blood in a tabletop centrifuge at 150×g for 15 minutes. Platelet aggregation experiments were performed with 225 μl of 25% o (v/v) diluted PRP stimulated with 25 μl of 10 μM adenosine 5′-diphosphate (ADP) (or saline as a negative control) on a Bio/Data PAP-8E Platelet Aggregation Profiler. 20 μl of saline containing 0.0001 μM to 250 μM of FMP1 or FMP2 (at each order of magnitude) were added to the 25% o diluted PRP, and final aggregation percentage was recorded. In GraphPad Prism®, a non-linear fit of log-dose vs. response was applied to the data, and the IC50 for each peptide was determined by calculating the intersection point at y=50.

In experiment [2] the target is GPIIb/IIIa on active human platelets (human) (UniProt P08514). Kind of experiment: cell-based or functional assay.
Sequence of UniProt P08514 (P08514 32-1039, chain 1 of 2): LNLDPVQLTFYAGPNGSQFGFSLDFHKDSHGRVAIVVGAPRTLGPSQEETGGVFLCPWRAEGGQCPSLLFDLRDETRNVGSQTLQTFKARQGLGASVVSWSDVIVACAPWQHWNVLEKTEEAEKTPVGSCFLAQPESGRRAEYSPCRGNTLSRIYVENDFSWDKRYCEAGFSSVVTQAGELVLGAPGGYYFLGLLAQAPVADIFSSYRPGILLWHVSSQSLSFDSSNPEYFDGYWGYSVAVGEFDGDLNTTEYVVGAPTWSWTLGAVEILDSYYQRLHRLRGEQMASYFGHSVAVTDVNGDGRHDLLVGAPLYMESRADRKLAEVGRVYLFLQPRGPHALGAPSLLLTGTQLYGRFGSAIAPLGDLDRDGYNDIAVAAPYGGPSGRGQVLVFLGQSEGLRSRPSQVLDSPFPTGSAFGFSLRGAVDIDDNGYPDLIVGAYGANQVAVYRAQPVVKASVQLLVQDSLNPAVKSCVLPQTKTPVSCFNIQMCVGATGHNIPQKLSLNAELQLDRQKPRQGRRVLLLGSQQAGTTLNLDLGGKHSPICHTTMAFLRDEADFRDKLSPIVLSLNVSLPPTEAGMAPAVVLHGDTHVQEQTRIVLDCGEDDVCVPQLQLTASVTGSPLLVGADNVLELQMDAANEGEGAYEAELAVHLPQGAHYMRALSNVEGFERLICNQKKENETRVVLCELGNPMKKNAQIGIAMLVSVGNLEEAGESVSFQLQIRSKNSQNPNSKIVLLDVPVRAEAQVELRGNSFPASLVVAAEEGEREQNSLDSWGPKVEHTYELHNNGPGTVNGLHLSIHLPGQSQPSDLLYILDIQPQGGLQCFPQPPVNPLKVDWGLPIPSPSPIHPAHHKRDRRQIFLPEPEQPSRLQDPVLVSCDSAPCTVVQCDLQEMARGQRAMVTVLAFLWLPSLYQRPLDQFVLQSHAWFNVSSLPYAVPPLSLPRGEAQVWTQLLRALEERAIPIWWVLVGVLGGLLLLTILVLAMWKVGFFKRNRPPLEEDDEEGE
Sequence of UniProt P08514 (P05106 27-788, chain 2 of 2, further chain): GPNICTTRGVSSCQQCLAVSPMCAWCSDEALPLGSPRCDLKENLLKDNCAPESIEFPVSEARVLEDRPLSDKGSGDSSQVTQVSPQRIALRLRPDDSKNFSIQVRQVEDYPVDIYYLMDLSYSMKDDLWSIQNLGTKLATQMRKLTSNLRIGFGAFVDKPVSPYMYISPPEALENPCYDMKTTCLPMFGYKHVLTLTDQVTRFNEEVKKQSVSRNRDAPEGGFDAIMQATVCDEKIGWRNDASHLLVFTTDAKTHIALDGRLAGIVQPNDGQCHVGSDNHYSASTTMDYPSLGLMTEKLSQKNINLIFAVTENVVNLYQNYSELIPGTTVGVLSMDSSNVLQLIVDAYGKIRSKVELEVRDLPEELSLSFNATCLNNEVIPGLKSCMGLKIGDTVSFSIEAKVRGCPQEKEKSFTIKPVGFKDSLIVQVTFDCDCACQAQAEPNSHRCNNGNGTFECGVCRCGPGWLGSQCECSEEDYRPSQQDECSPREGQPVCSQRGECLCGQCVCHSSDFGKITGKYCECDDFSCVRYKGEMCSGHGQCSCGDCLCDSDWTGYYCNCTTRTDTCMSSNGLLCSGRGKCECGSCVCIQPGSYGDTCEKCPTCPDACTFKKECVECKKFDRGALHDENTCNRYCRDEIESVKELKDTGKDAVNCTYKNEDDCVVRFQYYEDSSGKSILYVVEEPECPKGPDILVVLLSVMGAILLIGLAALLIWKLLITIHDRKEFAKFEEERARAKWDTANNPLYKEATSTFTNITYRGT

As for `CCOc1ccc(C[C@@H]2NC(=O)[C@H](CC(=O)O)NC(=O)CNC(=O)[C@H](CCCNC(=N)N)NC(=O)[C@@H]3CCCN3C(=O)[C@H](CC(N)=O)NC(=O)[C@H](CS)NC(=O)CCNC(=O)[C@H](CCCNC(=N)N)NC2=O)cc1` [FMP2, cyclo-(CNPRGD{Tyr(OEt)}R-β-A)] (cyclo(CNPRGDY(Et)R[βAla])), in experiment [1] (comparison of IC50), the “concentrations inhibiting platelet aggregation, FMP2 relative to FMP1” value was “over three orders of magnitude below FMP1”. In addition, in experiment [1], the “Peptide Inhibition of Platelet Aggregation, pass/fail result” value is reported as “Pass”; the IC50 is ~0.13 µM and 0.13 µM.

In turn, “FMP1, cyclo-{Pra}CNPRGD{Tyr(OEt)}RC trifluoroacetate salt (peptide)” registered an IC50 of inhibition of ADP-stimulated human platelet aggregation (light transmission aggregometry, diluted PRP, final aggregation %) in experiment [2] of 537 µM.

With `C#CC[C@H](N)C(=O)N[C@H]1CSSC[C@@H](C(=O)O)NC(=O)[C@H](CCCNC(=N)N)NC(=O)[C@H](Cc2ccc(OCC)cc2)NC(=O)[C@H](CC(=O)O)NC(=O)CNC(=O)[C@H](CCCNC(=N)N)NC(=O)[C@@H]2CCCN2C(=O)[C@H](CC(N)=O)NC1=O` [FMP1, cyclo-{Pra}CNPRGD{Tyr(OEt)}RC, reference compound] (H-[Pra]CNPRGDY(Et)RC-OH; disulfide 2-10; N-terminus and C-terminus assumed), in experiment [1], the “Peptide Inhibition of Platelet Aggregation, pass/fail result” value is given as “Pass”; the IC50 is ~537 µM and 537 µM.

As to “FMP2, cyclo-(CNPRGD{Tyr(OEt)}R-β-A) trifluoroacetate salt (peptide)”, the IC50 of inhibition of ADP-stimulated human platelet aggregation (light transmission aggregometry, diluted PRP, final aggregation %) in experiment [2] stood at 0.13 µM.

One may read the IC50 as the point on the concentration scale where inhibition reaches its midpoint. High values mean weaker potency, low ones greater potency.
